Where a name gives a salt, the structure may show the parent alone. Read-outs that look alike come from different tables or passages of the source.
Biological target: T1, human AspH (His6-AspH315–758) (Homo sapiens, UniProt Q12797)
T1 construct: N-Terminally His6-tagged human AspH315–758 (His6-AspH315–758) was produced in Escherichia coli BL21 (DE3) cells; made in house; host or cells: Escherichia coli BL21 (DE3), pET-28a(+) vector
T1 sequence (Q12797 315-758): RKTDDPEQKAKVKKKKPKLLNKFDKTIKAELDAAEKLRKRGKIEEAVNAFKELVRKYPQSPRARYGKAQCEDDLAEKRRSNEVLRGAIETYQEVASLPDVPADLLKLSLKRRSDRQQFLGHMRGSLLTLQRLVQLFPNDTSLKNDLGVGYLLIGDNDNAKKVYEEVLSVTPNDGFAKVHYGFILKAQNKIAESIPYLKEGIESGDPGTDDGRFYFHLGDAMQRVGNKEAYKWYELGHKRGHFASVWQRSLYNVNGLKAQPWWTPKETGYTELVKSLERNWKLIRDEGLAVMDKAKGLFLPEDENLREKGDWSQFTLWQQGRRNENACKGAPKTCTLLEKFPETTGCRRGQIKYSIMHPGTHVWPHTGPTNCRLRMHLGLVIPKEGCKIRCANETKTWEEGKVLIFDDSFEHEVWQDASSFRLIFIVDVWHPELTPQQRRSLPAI
Test: SPE-MS AspH inhibition assay (hFX-CP101-119 substrate hydroxylation)
Format: biochemical

[1] = AspH-inhibitor screening, 384-well Plate 1
[2] = AspH-inhibitor screening, 384-well Plate 1, substrate conversion
[3] = AspH-inhibitor screening, Plate 1-duplicate
[4] = AspH-inhibitor screening, Plate 1-duplicate, substrate conversion

| Structure (SMILES) | Plate 1 (% inhibition) [1] [%] | Plate 1 (% conversion) [2] [%] | Plate 1-duplicate (% inhibition) [3] [%] | Plate 1-duplicate (% conversion) [4] [%] | Plate 1 (% conversion) [%] | Plate 1 (% inhibition) [%] | Plate 1-duplicate (% conversion) [%] | Plate 1-duplicate (% inhibition) [%] |
| --- | --- | --- | --- | --- | --- | --- | --- | --- |
| NCC(=O)CCC(=O)O [Aminolevulinic acid hydrochloride] | 20.47 | 40.30 | 25.89 | 39.20 |  |  |  |  |
| CN(C)CCN1C(=O)c2cccc3cc(N)cc(c23)C1=O [Amonafide] | 4.40 | 47.72 | 3.28 | 50.42 |  |  |  |  |
| O=C1CN2Cc3c(ccc(Cl)c3Cl)N=C2N1 [Anagrelide] | 0.57 | 49.49 | 0.27 | 51.91 |  |  |  |  |
| CC(C)(C#N)c1cc(Cn2cncn2)cc(C(C)(C)C#N)c1 [Anastrozole] | 2.34 | 48.67 | 3.84 | 50.14 |  |  |  |  |
| O=[As]O[As]=O (stereo not drawn) [Arsenic(III) oxide] |  |  |  |  | 46.14 | 7.82 | 49.86 | 4.39 |
| CC(=O)Oc1ccccc1C(=O)O [Aspirin (Acetylsalicylic Acid)] | 8.11 | 46.01 | 6.00 | 49.07 |  |  |  |  |
| CC(C)c1c(C(=O)Nc2ccccc2)c(-c2ccccc2)c(-c2ccc(F)cc2)n1CC[C@@H](O)C[C@@H](O)CC(=O)[O-].CC(C)c1c(C(=O)Nc2ccccc2)c(-c2ccccc2)c(-c2ccc(F)cc2)n1CC[C@@H](O)C[C@@H](O)CC(=O)[O-].[Ca+2] [Atorvastatin Ca] |  |  |  |  |  | 0.42 |  | -1.82 |
| CC(=O)OC[C@H]1O[C@@H]([S-])[C@H](OC(C)=O)[C@@H](OC(C)=O)[C@@H]1OC(C)=O.CCP(CC)CC.[Au+] [Auranofin] | 60.34 | 21.89 | 55.51 | 24.51 |  |  |  |  |
| CNC(=O)c1ccccc1Sc1ccc2c(/C=C/c3ccccn3)n[nH]c2c1 [Axitinib] | 0.59 | 49.48 | -0.34 | 52.21 |  |  |  |  |
| Nc1ncn([C@@H]2O[C@H](CO)[C@@H](O)[C@H]2O)c(=O)n1 [Azacitidine] | 17.64 | 41.61 | 12.26 | 45.96 |  |  |  |  |
| CNC(=O)c1cc(Oc2ccc(NC(=O)Nc3ccc(Cl)c(C(F)(F)F)c3)c(F)c2)ccn1 [BAY 73-4506_Regorafenib] | 62.82 | 20.74 | 53.45 | 25.53 |  |  |  |  |
| CC[C@@H]1C(=O)N(C)c2cnc(Nc3ccc(C(=O)N[C@H]4CC[C@H](N5CCN(CC6CC6)CC5)CC4)cc3OC)nc2N1C(C)C [BI 6727_Volasertib] | -9.00 | 53.91 | -19.71 | 61.82 |  |  |  |  |
| COC(=O)c1ccc2c(c1)NC(=O)/C2=C(\Nc1ccc(N(C)C(=O)CN2CCN(C)CC2)cc1)c1ccccc1 [BIBF 1120_Nintedanib] | -13.53 | 56.00 | -2.41 | 53.24 |  |  |  |  |
| CN(C)C/C=C/C(=O)Nc1cc2c(Nc3ccc(F)c(Cl)c3)ncnc2cc1O[C@H]1CCOC1 [BIBW2992 (Tovok)_Afatinib] | -24.14 | 60.90 | -42.32 | 73.03 |  |  |  |  |
| COc1c(C)cnc(Cn2cnc3c(Cl)nc(N)nc32)c1C [BIIB021] | 5.65 | 47.14 | 5.00 | 49.56 |  |  |  |  |
| Cc1ccc(-n2nc(C(C)(C)C)cc2NC(=O)Nc2ccc(OCCN3CCOCC3)c3ccccc23)cc1 [BIRB 796 (Doramapimod)] | 7.83 | 46.14 | 2.76 | 50.67 |  |  |  |  |
| Nc1cc(C(F)(F)F)c(-c2cc(N3CCOCC3)nc(N3CCOCC3)n2)cn1 [BKM-120_Buparlisib] | 1.72 | 48.96 | -1.07 | 52.57 |  |  |  |  |
| CCn1c(C(=O)N(C2CC2)C2CC2)cc2c3c(ncn3C)c(Nc3cc(C)n(C)n3)nc21 [BMS-911543] | -9.55 | 54.16 | -14.91 | 59.44 |  |  |  |  |

| Structure (SMILES) | Plate 1 (% inhibition) [1] [%] | Plate 1 (% conversion) [2] [%] | Plate 1-duplicate (% inhibition) [3] [%] | Plate 1-duplicate (% conversion) [4] [%] | Plate 1 (% conversion) [%] | Plate 1 (% inhibition) [%] | Plate 1-duplicate (% conversion) [%] | Plate 1-duplicate (% inhibition) [%] |
| --- | --- | --- | --- | --- | --- | --- | --- | --- |
| O=C(/C=C/c1cccc(S(=O)(=O)Nc2ccccc2)c1)NO [Belinostat (PXD101)] | 97.27 | 4.83 | 96.98 | 3.94 |  |  |  |  |
| Cl.Cn1c(CCCC(=O)O)nc2cc(N(CCCl)CCCl)ccc21 [Bendamustine hydrochloride] | 2.89 | 48.41 | 4.93 | 49.60 |  |  |  |  |
| C=C(c1ccc(C(=O)O)cc1)c1cc2c(cc1C)C(C)(C)CCC2(C)C [Bexarotene] | -5.40 | 52.24 | -0.39 | 52.24 |  |  |  |  |
| CC(O)(CS(=O)(=O)c1ccc(F)cc1)C(=O)Nc1ccc(C#N)c(C(F)(F)F)c1 (stereo not drawn) [Bicalutamide] | -2.20 | 50.76 | 0.00746 | 52.04 |  |  |  |  |
| CCNC(=O)CCC/C=C\C[C@@H]1[C@@H](/C=C/[C@@H](O)CCc2ccccc2)[C@H](O)C[C@@H]1O [Bimatoprost] | -1.86 | 50.61 | -1.99 | 53.03 |  |  |  |  |
| CC(C)C[C@H](NC(=O)[C@H](Cc1ccccc1)NC(=O)c1cnccn1)B(O)O [Bortezomib] | 6.81 | 46.61 | 7.89 | 48.13 |  |  |  |  |
| COc1cc(Nc2c(C#N)cnc3cc(OCCCN4CCN(C)CC4)c(OC)cc23)c(Cl)cc1Cl [Bosutinib] | -48.53 | 72.16 | -50.33 | 77.00 |  |  |  |  |
| Cc1cc2c(F)c(Oc3ncnn4cc(OC[C@@H](C)O)c(C)c34)ccc2[nH]1 [Brivanib] | 6.97 | 46.53 | 3.72 | 50.20 |  |  |  |  |
| CS(=O)(=O)OCCCCOS(C)(=O)=O [Busulfan] | 14.61 | 43.00 | 8.69 | 47.73 |  |  |  |  |
| CC[C@H](Nc1ncnc2[nH]cnc12)c1nc2cccc(F)c2c(=O)n1-c1ccccc1 [CAL-101] | 5.28 | 47.31 | 3.08 | 50.52 |  |  |  |  |
| CN1CCN(c2ccc3nc(-c4c(N)c5c(F)cccc5[nH]c4=O)[nH]c3c2)CC1 [CHIR-258 (Dovitinib)] | -15.11 | 56.73 | -6.96 | 55.49 |  |  |  |  |
| CC(C)C[C@@H](C(=O)N[C@H](C(=O)OC1CCCC1)c1ccccc1)[C@H](O)C(=O)NO [CHR 2797_Tosedostat] | -9.77 | 54.26 | -16.99 | 60.47 |  |  |  |  |
| CC(=O)Nc1ccc(C(=O)Nc2ccccc2N)cc1 [CI-994_Tacedinaline] | 4.32 | 47.76 | 4.57 | 49.78 |  |  |  |  |
| O=C(O)CCCCC(CCSCc1ccccc1)SCc1ccccc1 (stereo not drawn) [CPI-613] | -2.25 | 50.79 | -2.45 | 53.26 |  |  |  |  |
| C#Cc1cccc(Nc2ncnc3cc(OC)c(OCCCCCCC(=O)NO)cc23)c1 [CUDC-101] | 70.67 | 17.12 | 72.15 | 16.26 |  |  |  |  |
| N#CCNC(=O)c1ccc(-c2ccnc(Nc3ccc(N4CCOCC4)cc3)n2)cc1 [CYT-387_Momelotinib] | 5.72 | 47.11 | 4.84 | 49.64 |  |  |  |  |
| CO[C@H]1C(=O)[C@]2(C)[C@@H](OC)C[C@H]3OC[C@@]3(OC(C)=O)[C@H]2[C@H](OC(=O)c2ccccc2)[C@]2(O)C[C@H](OC(=O)[C@H](O)[C@@H](NC(=O)OC(C)(C)C)c3ccccc3)C(C)=C1C2(C)C [Cabazitaxel] | -8.77 | 53.80 | -20.49 | 62.20 |  |  |  |  |

Reference: PMC7588595, “Small-molecule active pharmaceutical ingredients of approved cancer therapeutics inhibit human aspartate/asparagine-β-hydroxylase” (Bioorganic & Medicinal Chemistry, 2020)
